Experimental data taken from ChEMBL document CHEMBL4507260 (2021).

Key:
Conditions in all cases: Compound concentration 1000.0 nM
[1] = biological target: Tyrosine-protein kinase BTK (Homo sapiens) (UniProt Q06187)
[2] = biological target: Ribosomal protein S6 kinase alpha-4 (Homo sapiens) (UniProt O75676)
[3] = biological target: TGF-beta receptor type-2 (Homo sapiens) (UniProt P37173)
[4] = biological target: Fibroblast growth factor receptor 2 (Homo sapiens) (UniProt P21802)
[5] = biological target: Calcium/calmodulin-dependent protein kinase type 1G (Homo sapiens) (UniProt Q96NX5)
[6] = biological target: Phosphorylase b kinase gamma catalytic chain, skeletal muscle/heart isoform (Homo sapiens) (UniProt Q16816)
[7] = biological target: Proto-oncogene tyrosine-protein kinase Src (Homo sapiens) (UniProt P12931)
Chain of Proto-oncogene tyrosine-protein kinase Src (Homo sapiens) (P12931 2-536 limits assumed): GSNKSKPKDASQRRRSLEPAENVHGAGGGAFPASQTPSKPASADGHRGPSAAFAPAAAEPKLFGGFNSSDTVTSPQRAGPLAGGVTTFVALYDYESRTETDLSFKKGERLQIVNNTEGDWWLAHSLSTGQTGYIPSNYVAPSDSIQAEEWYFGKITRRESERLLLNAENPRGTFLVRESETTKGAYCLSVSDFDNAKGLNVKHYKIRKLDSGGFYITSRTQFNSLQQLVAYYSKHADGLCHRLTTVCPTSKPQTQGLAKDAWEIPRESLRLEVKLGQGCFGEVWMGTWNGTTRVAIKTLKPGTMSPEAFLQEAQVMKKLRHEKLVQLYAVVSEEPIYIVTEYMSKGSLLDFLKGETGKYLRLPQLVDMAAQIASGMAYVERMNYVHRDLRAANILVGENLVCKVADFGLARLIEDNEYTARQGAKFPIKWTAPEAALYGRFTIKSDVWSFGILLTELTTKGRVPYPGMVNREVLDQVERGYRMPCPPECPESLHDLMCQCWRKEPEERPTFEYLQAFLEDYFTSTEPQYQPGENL

[8] = biological target: Cyclin-dependent kinase-like 1 (Homo sapiens) (UniProt Q00532)
[9] = biological target: MAP kinase-interacting serine/threonine-protein kinase 2 (Homo sapiens) (UniProt Q9HBH9)
Chain of MAP kinase-interacting serine/threonine-protein kinase 2 (Homo sapiens) (Q9HBH9 whole entry, looked up): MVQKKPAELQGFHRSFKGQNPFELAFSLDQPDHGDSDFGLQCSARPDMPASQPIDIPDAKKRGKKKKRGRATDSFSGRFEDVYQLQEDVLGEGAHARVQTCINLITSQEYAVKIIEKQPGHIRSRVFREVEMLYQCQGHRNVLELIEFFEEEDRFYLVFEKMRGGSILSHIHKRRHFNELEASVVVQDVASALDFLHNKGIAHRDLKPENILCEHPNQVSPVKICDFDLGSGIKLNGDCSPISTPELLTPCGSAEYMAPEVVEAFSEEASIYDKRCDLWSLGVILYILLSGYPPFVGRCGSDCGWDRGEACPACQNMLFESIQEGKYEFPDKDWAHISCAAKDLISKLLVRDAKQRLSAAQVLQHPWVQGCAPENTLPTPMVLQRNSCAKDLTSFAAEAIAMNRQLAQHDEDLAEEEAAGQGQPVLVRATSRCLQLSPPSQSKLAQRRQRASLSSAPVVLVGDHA

[10] = biological target: Ephrin type-B receptor 1 (Homo sapiens) (UniProt P54762)
[11] = biological target: Serine/threonine-protein kinase 33 (Homo sapiens) (UniProt Q9BYT3)
[12] = system: Tyrosine-protein kinase ABL1 (Homo sapiens), P00519 [E255K]
[13] = system: Epidermal growth factor receptor (Homo sapiens), P00533 [T790M]
[14] = biological target: Tyrosine-protein kinase JAK1 (Homo sapiens) (UniProt P23458)
[15] = biological target: Receptor tyrosine-protein kinase erbB-3 (Homo sapiens) (UniProt P21860)
[16] = system: Serine/threonine-protein kinase B-raf (Homo sapiens), P15056 [V600E]
[17] = biological target: Mitogen-activated protein kinase kinase kinase 14 (Homo sapiens) (UniProt Q99558)
[18] = biological target: Cyclin-dependent kinase-like 5 (Homo sapiens) (UniProt O76039)
[19] = biological target: Serine/threonine-protein kinase Chk1 (Homo sapiens) (UniProt O14757)
Chain of Serine/threonine-protein kinase Chk1 (Homo sapiens) (O14757 whole entry): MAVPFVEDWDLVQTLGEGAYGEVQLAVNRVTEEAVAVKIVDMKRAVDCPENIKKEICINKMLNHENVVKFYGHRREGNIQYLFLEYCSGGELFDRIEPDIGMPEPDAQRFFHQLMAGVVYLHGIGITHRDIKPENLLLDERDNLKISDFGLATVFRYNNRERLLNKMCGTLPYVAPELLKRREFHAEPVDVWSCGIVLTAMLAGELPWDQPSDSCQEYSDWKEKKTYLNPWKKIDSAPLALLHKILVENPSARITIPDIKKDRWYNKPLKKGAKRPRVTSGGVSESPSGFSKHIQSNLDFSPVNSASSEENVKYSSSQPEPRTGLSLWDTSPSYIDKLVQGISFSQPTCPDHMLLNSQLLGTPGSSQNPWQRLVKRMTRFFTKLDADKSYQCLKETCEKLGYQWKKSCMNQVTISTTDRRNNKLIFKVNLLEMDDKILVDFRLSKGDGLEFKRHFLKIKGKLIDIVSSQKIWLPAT

[20] = biological target: Serine/threonine-protein kinase 4 (Homo sapiens) (UniProt Q13043)
Chain of Serine/threonine-protein kinase 4 (Homo sapiens) (Q13043 whole entry): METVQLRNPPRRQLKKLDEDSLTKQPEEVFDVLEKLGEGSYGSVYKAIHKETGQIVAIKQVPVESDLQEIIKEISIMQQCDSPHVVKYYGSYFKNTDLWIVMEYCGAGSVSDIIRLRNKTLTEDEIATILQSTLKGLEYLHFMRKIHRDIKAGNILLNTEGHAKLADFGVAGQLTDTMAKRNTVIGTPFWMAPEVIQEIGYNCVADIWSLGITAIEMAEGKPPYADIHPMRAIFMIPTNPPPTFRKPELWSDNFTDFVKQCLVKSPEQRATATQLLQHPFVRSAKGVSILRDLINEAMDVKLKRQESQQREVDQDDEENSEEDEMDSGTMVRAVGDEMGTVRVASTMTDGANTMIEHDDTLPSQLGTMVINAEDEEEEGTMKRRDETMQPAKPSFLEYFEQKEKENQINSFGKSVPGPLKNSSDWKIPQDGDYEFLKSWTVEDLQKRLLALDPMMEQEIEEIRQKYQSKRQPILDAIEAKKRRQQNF

[21] = biological target: Citron Rho-interacting kinase (Homo sapiens) (UniProt O14578)
[22] = biological target: ALK tyrosine kinase receptor (Homo sapiens) (UniProt Q9UM73)
Chain of ALK tyrosine kinase receptor (Homo sapiens) (Q9UM73 19-1620 limits assumed): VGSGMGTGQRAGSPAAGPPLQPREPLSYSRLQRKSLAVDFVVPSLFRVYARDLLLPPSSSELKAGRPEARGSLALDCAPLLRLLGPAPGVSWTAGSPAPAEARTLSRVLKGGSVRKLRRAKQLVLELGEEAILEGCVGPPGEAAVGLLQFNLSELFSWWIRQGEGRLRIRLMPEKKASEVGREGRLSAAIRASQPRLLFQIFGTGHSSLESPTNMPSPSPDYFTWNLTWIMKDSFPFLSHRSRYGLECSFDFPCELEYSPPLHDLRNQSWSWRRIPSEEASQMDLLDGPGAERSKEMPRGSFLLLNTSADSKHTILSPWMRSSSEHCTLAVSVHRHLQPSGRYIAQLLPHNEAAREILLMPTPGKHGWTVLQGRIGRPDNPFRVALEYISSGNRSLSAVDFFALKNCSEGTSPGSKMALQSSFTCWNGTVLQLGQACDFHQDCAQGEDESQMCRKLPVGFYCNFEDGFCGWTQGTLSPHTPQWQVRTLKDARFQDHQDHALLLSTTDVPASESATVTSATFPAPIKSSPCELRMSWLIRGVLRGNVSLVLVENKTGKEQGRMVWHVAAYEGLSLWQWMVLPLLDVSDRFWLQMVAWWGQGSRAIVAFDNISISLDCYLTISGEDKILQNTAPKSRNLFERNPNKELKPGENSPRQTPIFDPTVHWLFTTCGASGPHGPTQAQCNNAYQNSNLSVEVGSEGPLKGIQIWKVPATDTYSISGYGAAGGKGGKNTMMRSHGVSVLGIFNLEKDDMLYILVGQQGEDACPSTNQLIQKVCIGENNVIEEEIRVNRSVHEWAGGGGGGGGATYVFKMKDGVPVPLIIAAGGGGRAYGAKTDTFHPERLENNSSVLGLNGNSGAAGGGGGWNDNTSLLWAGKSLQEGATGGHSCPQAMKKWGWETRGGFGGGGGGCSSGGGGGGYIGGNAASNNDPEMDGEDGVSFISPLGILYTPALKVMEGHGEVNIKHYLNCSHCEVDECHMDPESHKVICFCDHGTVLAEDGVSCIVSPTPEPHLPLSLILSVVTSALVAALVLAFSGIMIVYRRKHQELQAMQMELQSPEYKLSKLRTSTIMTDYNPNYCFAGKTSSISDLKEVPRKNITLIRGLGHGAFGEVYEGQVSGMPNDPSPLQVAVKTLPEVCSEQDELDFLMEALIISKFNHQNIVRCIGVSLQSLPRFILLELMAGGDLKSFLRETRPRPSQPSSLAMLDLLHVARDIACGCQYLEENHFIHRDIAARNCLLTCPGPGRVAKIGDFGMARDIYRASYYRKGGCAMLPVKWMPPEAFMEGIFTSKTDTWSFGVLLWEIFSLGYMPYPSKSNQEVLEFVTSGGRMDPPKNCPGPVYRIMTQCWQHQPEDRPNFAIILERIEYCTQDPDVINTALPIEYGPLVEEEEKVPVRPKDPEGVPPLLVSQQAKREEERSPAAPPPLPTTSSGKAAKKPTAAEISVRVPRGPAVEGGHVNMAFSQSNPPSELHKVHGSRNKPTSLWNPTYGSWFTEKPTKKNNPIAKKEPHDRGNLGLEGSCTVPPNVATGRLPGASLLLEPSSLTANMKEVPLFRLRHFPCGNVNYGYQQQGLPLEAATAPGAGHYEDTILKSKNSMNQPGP

[23] = biological target: Cyclin-dependent kinase 11B (Homo sapiens) (UniProt P21127)
[24] = biological target: RAC-gamma serine/threonine-protein kinase (Homo sapiens) (UniProt Q9Y243)
[25] = biological target: Serine/threonine-protein kinase RIO3 (Homo sapiens) (UniProt O14730)
[26] = biological target: Dual specificity mitogen-activated protein kinase kinase 7 (Homo sapiens) (UniProt O14733)
Chain of Dual specificity mitogen-activated protein kinase kinase 7 (Homo sapiens) (O14733 whole entry): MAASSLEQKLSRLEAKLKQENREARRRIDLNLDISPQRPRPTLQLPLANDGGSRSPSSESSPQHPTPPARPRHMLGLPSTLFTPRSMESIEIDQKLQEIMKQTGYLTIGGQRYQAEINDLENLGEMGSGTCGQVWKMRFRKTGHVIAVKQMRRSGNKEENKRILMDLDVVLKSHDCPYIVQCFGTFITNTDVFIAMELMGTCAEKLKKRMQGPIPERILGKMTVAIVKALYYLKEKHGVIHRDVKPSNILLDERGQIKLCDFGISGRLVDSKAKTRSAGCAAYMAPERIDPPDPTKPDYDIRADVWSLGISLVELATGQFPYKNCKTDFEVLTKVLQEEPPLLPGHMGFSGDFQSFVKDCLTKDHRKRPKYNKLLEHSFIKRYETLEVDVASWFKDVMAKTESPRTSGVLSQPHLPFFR

[27] = biological target: Myosin light chain kinase, smooth muscle (Homo sapiens) (UniProt Q15746)
[28] = system: Phosphatidylinositol 4,5-bisphosphate 3-kinase catalytic subunit alpha isoform (Homo sapiens), P42336 [E542K]
[29] = biological target: Serine/threonine-protein kinase 17A (Homo sapiens) (UniProt Q9UEE5)
[30] = biological target: Casein kinase I isoform alpha-like (Homo sapiens) (UniProt Q8N752)
Chain of Casein kinase I isoform alpha-like (Homo sapiens) (Q8N752 whole entry, canonical isoform): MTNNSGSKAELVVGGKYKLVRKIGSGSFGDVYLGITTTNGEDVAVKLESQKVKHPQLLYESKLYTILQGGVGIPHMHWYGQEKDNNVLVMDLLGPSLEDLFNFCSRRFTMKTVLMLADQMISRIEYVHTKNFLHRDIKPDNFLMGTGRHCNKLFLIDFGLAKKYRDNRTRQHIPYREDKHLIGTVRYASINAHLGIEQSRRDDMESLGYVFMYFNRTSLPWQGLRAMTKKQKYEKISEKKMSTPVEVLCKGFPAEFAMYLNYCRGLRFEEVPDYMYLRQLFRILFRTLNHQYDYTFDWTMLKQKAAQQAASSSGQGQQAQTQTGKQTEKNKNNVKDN

[31] = biological target: SNF-related serine/threonine-protein kinase (Homo sapiens) (UniProt Q9NRH2)
[32] = system: Mast/stem cell growth factor receptor Kit (Homo sapiens), P10721 [V559D]
[33] = biological target: Macrophage colony-stimulating factor 1 receptor (Homo sapiens) (UniProt P07333)
[34] = biological target: Uncharacterized serine/threonine-protein kinase SBK3 (Homo sapiens) (UniProt P0C264)
[35] = biological target: BDNF/NT-3 growth factors receptor (Homo sapiens) (UniProt Q16620)
[36] = biological target: Ribosomal protein S6 kinase alpha-1 (Homo sapiens) (UniProt Q15418)
[37] = biological target: RAC-beta serine/threonine-protein kinase (Homo sapiens) (UniProt P31751)
[38] = biological target: Serine/threonine-protein kinase ULK2 (Homo sapiens) (UniProt Q8IYT8)
[39] = biological target: Calcium/calmodulin-dependent protein kinase kinase 2 (Homo sapiens) (UniProt Q96RR4)
[40] = biological target: Calcium/calmodulin-dependent protein kinase type II subunit alpha (Homo sapiens) (UniProt Q9UQM7)
[41] = biological target: Serine/threonine-protein kinase PAK 2 (Homo sapiens) (UniProt Q13177)
[42] = biological target: Serine/threonine-protein kinase Nek11 (Homo sapiens) (UniProt Q8NG66)
Chain of Serine/threonine-protein kinase Nek11 (Homo sapiens) (Q8NG66 whole entry): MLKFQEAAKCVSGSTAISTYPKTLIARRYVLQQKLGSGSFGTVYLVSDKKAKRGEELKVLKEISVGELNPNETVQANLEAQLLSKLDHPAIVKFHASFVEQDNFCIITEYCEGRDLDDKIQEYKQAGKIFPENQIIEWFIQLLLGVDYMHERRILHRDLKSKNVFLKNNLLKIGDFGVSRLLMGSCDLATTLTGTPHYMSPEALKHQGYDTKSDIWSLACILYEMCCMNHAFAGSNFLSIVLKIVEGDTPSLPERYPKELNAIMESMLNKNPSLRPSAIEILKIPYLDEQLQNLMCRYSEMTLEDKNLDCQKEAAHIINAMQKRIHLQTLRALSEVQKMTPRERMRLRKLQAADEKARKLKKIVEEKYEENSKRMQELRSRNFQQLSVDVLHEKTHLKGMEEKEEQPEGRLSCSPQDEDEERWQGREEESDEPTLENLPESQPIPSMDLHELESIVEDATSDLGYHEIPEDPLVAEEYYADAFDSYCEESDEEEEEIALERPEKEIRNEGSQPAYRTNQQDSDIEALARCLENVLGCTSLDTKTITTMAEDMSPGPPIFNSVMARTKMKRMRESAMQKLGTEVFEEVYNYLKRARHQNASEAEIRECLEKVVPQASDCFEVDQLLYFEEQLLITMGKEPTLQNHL

[43] = system: Epidermal growth factor receptor (Homo sapiens), P00533 [UNDEFINED MUTATION]
[44] = system: eIF-2-alpha kinase GCN2 (Homo sapiens), Q9P2K8 [S808G]
[45] = biological target: Tyrosine-protein kinase SYK (Homo sapiens) (UniProt P43405)

Measured: residual activity

CSc1cccnc1N1CCN(Cc2nc3ccccc3[nH]2)CC1 [A-769]
inactive: [1] 79% | [2] 73% | [3] 99% | [4] 100% | [5] 100% | [6] 96% | [7] 100% | [8] 100% | [9] 75% | [10] 99% | [11] 91% | [12] 67% | [13] 85% | [14] 80% | [15] 90% | [16] 85% | [17] 100% | [18] 76% | [19] 94% | [20] 85% | [21] 100% | [22] 70% | [23] 100% | [24] 92% | [25] 100% | [26] 92% | [27] 94% | [28] 82% | [29] 98% | [30] 100% | [31] 100% | [32] 96% | [33] 73% | [34] 100% | [35] 100% | [36] 100% | [37] 98% | [38] 94% | [39] 100% | [40] 100% | [41] 100% | [42] 79% | [43] 100% | [44] 100% | [45] 100%

c1ccc(N2CCN(Cc3nc4ccccc4[nH]3)CC2)nc1 [ABT-724]
inactive: [1] 96% | [2] 100% | [3] 88% | [4] 96% | [5] 100% | [6] 100% | [7] 93% | [8] 78% | [9] 100% | [10] 100% | [11] 97% | [12] 100% | [13] 99% | [14] 76% | [15] 91% | [16] 100% | [17] 94% | [18] 100% | [19] 100% | [20] 100% | [21] 88% | [22] 91% | [23] 100% | [24] 100% | [25] 100% | [26] 100% | [27] 80% | [28] 100% | [29] 100% | [30] 100% | [31] 100% | [32] 100% | [33] 100% | [34] 100% | [35] 100% | [36] 100% | [37] 100% | [38] 100% | [39] 91% | [40] 100% | [41] 100% | [42] 100% | [43] 100% | [44] 65% | [45] 100%
